According to ChEMBL document CHEMBL4732085, “Di-aryl guanidinium derivatives: Towards improved α2-Adrenergic affinity and antagonist activity” (Eur J Med Chem, 2021):

How the values were obtained:
[1] = target: T1, Adrenergic receptor alpha-2 (Homo sapiens, UniProt P08913+P18825+P18089); test: Displacement of [3H]-RX821002 from adrenergic alpha 2 receptor in human brain membrane by liquid scintillation spectroscopy; format: cell membranes
T1 sequence (P08913 whole entry): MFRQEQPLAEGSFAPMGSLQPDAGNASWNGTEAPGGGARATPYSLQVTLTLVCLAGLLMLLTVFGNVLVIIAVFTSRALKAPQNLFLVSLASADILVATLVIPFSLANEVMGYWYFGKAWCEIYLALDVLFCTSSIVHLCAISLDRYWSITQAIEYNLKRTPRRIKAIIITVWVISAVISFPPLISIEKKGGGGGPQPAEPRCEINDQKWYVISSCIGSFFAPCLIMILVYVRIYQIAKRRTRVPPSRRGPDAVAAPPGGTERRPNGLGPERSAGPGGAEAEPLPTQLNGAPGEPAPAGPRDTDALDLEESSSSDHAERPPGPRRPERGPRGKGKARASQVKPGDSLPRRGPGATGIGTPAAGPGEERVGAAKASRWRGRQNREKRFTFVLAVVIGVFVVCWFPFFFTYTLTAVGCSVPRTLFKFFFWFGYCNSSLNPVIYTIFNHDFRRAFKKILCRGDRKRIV
T1 sequence (P18825 whole entry): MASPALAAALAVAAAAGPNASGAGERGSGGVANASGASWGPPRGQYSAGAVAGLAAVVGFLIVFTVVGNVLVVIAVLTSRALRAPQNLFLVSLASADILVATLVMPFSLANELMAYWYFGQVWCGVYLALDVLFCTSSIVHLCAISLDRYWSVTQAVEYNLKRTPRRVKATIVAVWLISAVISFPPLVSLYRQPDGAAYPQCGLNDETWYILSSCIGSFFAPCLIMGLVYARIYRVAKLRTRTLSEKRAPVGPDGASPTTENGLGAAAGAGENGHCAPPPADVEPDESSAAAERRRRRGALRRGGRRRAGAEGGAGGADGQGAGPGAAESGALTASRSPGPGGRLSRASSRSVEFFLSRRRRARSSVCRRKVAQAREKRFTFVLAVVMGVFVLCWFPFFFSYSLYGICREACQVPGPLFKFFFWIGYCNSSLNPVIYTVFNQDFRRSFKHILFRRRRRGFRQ
T1 sequence (P18089 whole entry): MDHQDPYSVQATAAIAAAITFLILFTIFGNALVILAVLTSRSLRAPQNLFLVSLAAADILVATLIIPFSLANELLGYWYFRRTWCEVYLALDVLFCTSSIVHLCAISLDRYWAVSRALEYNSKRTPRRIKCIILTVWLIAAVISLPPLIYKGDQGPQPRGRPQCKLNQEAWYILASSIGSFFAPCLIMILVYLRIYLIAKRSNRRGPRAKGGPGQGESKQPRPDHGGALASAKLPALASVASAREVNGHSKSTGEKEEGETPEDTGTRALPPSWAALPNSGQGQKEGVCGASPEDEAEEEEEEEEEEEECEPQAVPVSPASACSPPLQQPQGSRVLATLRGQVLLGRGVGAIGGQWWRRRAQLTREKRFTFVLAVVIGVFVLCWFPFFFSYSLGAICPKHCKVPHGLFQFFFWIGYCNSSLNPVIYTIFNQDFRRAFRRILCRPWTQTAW

[2] = target: T1, Adrenergic receptor alpha-2; test: Antagonist activity at adrenergic alpha 2 receptor in human brain membrane assessed as inhibition of UK14304-induced stimulation of [35S]GTPgammaS binding by liquid scintillation spectroscopy (reference value: 1.77 +/- […]); format: functional, cell membranes
[3] = target: T2, Adrenergic receptor alpha-2 (Homo sapiens) (UniProt P08913+P18825+P18089); test: Antagonist activity at adrenergic alpha 2 receptor in human brain membrane assessed as inhibition of UK14304-induced stimulation of [35S]GTPgammaS binding at 10 uM by liquid scintillation spectroscopy (reference value: 153 +/- 4%); format: functional, cell membranes; conditions: filed as antagonist
[4] = target: T1, Adrenergic receptor alpha-2; test: Agonist activity at adrenergic alpha 2 receptor in human brain membrane assessed as stimulation of [35S]GTPgammaS binding by liquid scintillation spectroscopy; format: functional, cell membranes
[5] = target: T2, Adrenergic receptor alpha-2 (Homo sapiens); test: Agonist activity at adrenergic alpha 2 receptor in human brain membrane assessed as stimulation of [35S]GTPgammaS binding at 10 uM by liquid scintillation spectroscopy relative to control; format: functional, cell membranes; conditions: filed as agonist
[6] = target: T2, Adrenergic receptor alpha-2 (Homo sapiens); test: Agonist activity at adrenergic alpha 2 receptor in human brain membrane assessed as stimulation of [35S]GTPgammaS binding at 10 uM in presence of adrenergic alpha 2 receptor antagonist RX821002 by liquid scintillation spectroscopy; format: functional, cell membranes; conditions: filed as agonist
[7] = target: T1, Adrenergic receptor alpha-2; test: Agonist activity at adrenergic alpha 2 receptor in human brain membrane assessed as stimulation of [35S]GTPgammaS binding in presence of adrenergic alpha 2 receptor antagonist RX821002 by liquid scintillation spectroscopy; format: functional, cell membranes

Row | Ki [1] [µM] | EC50 [2] [µM] | Emax [3] [%] | SMILES | also measured
1 | 2.485 | – | – | Cl.Cl.N=C(NCCO)Nc1ccc(Cc2ccc(NC(=N)NCCO)cc2)cc1 | –
2 | 0.12 | 4.14 | 139 | CCCNC(=N)Nc1ccc(Cc2ccc(NC3=NCCN3)nc2)cc1.Cl.Cl | –
3 | 0.00177 | 11.6 | 155 | Cl.Cl.N=C(NCc1ccco1)Nc1ccc(Cc2ccc(NC3=NCCN3)cc2)cc1 | EC50 [4]: 534 µM; Emax [5]: 168%; Emax [6]: 130%; EC50 [7]: 2356 µM
4 | 0.674 | – | – | Cl.Cl.N=C(N)Nc1ccc(Cc2ccc(NC3=NCCN3)nc2)cc1 | –
5 | 0.742 | – | – | CCCNC(=N)Nc1ccc(Cc2ccc(NC(=N)NCCC)cc2)cc1.Cl.Cl | –
6 | 0.355 | – | – | Cl.Cl.N=C(NCc1ccco1)Nc1ccc(Cc2ccc(NC(=N)NCc3ccco3)cc2)cc1 | –
7 | 0.0868 | 39.9 | 140 | Cl.Cl.N=C(N)Nc1ccc(Cc2ccc(NC3=NCCN3)cc2)cn1 | –
8 | 0.418 | – | – | Cl.Cl.N=C(NCc1ccco1)Nc1ccc(CCc2ccc(NC3=NCCN3)cc2)cc1 | –
9 | 0.0339 | 52.3 | 96 | Cl.Cl.N=C(NCc1ccco1)Nc1ccc(Cc2ccc(NC3=NCCN3)cc2)cn1 | EC50 [4]: 194 µM; Emax [5]: 149%; Emax [6]: 154%; EC50 [7]: 252 µM
10 | 0.0676 | 30.8 | 122 | CCCNC(=N)Nc1ccc(Cc2ccc(NC3=NCCN3)cc2)cn1.Cl.Cl | –
11 | 0.175 | – | – | Cl.Cl.N=C(N)Nc1ccc(CCc2ccc(N=C3NCCN3)cc2)cc1 | –
12 | 1.745 | – | – | CCCNC(=N)Nc1ccc(CCc2ccc(NC3=NCCN3)cc2)cc1.Cl.Cl | –
13 | 0.0776 | – | – | N=C(N)Nc1ccc2c(c1)CCCC2 | –
14 | 0.2318 | – | – | CN(C)c1ccc(/N=C(/N)NCc2ccco2)cc1 | –
15 | 0.1659 | – | – | N=C(N)NC1C=C2CCCCC2=CN1 (stereo unspecified) | –
16 | 0.00082 | 30 | 171 | CCCNC(=N)Nc1ccc(Cc2ccc(NC3=NCCN3)cc2)cc1.Cl.Cl | EC50 [4]: 46 µM; Emax [5]: 139%; Emax [6]: 110%; EC50 [7]: 487 µM
17 | 0.138 | – | – | Cl.Cl.N=C(N)Nc1ccc(Cc2ccc(NC3=NCCN3)nc2)cn1 | –
18 | 0.0123 | 20.2 | 110 | Cl.Cl.N=C(N)Nc1ccc(Cc2ccc(N=C3NCCN3)cc2)cc1 | EC50 [4]: 18 µM; Emax [5]: 126%; Emax [6]: 122%; EC50 [7]: 64020 µM
19 | – | 87.2 | 98 | COC1(C2=NCCN2)COc2ccccc2O1 (stereo unspecified) | –
20 | 0.433 | – | – | Cl.Cl.N=C(NCc1ccco1)Nc1ccc(Cc2ccc(NC3=NCCN3)nc2)cc1 | –
21 | 0.263 | – | – | Cl.Cl.N=C(NCc1ccco1)Nc1ccc(Cc2ccc(NC3=NCCN3)nc2)cn1 | –
22 | 0.0899 | 10.2 | 127 | CCCNC(=N)Nc1ccc(Cc2ccc(NC3=NCCN3)nc2)cn1.Cl.Cl | –

Row | SMILES | Ki [1] [µM] | EC50 [2] [µM] | Emax [3] [%] | also measured
23 | c1cc2c(cc1NC1=NCCN1)CCCC2 | 0.0468 | – | – | –
